Assays:
Test in all cases: drug sensitivity score (DSS3, normalised partial AUC of % inhibition dose-response) (DSS (score)); higher = more sensitive (stronger inhibition of viability); extreme values may be limits of the assay
FMOC25_2 = patient-derived low-grade serous ovarian cancer cells; settings: 72 h; library: FO5A; assay format: 2D, 384-well, CellTiter-Glo
In short: (§1)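 Early-passage (under 10) patient-derived ovarian cancer cells were dispensed onto 384-well flat clear-bottom plates pre-plated with compounds at five concentrations spanning a 10,000-fold range, then incubated 72 h at 37 °C, 5% CO2. Viability was read with CellTiter-Glo, and the data were processed in Breeze. The drug sensitivity score is a partial area under the percent-inhibition dose-response curve divided by the log of the upper asymptote, with higher values meaning greater sensitivity.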

FMOC11 = patient-derived high-grade serous ovarian cancer cells; settings: 72 h; library: FO5A; assay format: 2D, 384-well, CellTiter-Glo
In short: as §1

FMOC06 = patient-derived mucinous ovarian cancer cells; settings: 72 h; library: FO5A; assay format: 2D, 384-well, CellTiter-Glo
In short: as §1

FMOC02_2 = patient-derived low-grade serous ovarian cancer cells; settings: 72 h; library: FO5A; assay format: 2D, 384-well, CellTiter-Glo
In short: as §1

FMOC22 = patient-derived mucinous ovarian cancer cells; settings: 72 h; library: FO5A; assay format: 2D, 384-well, CellTiter-Glo
In short: as §1

FMOC17 = patient-derived low-grade serous ovarian cancer cells; settings: 72 h; library: FO5A; assay format: 2D, 384-well, CellTiter-Glo
In short: as §1

FMOC02_3 = patient-derived low-grade serous ovarian cancer cells; settings: 72 h; library: FO5A; assay format: 2D, 384-well, CellTiter-Glo
In short: as §1

FMOC09 = patient-derived high-grade serous ovarian cancer cells; settings: 72 h; library: FO5A; assay format: 2D, 384-well, CellTiter-Glo
In short: as §1

FMOC24 = patient-derived high-grade serous ovarian cancer cells; settings: 72 h; library: FO5A; assay format: 2D, 384-well, CellTiter-Glo
In short: as §1

FMOC04 = patient-derived high-grade serous ovarian cancer cells; settings: 72 h; library: FO5A; assay format: 2D, 384-well, CellTiter-Glo
In short: as §1

FMOC03 = patient-derived mucinous ovarian cancer cells; settings: 72 h; library: FO5A; assay format: 2D, 384-well, CellTiter-Glo
In short: as §1

FMOC14 = patient-derived high-grade serous ovarian cancer cells; settings: 72 h; library: FO5A; assay format: 2D, 384-well, CellTiter-Glo
In short: as §1

FMOC27 = patient-derived low-grade serous ovarian cancer cells; settings: 72 h; library: FO5A; assay format: 2D, 384-well, CellTiter-Glo
In short: as §1

FMOC25_1 = patient-derived low-grade serous ovarian cancer cells; settings: 72 h; library: FO4B; assay format: 2D, 384-well, CellTiter-Glo
In short: as §1

FMOC02_1 = patient-derived low-grade serous ovarian cancer cells; settings: 72 h; library: FO5A; assay format: 2D, 384-well, CellTiter-Glo
In short: as §1

FMOC28 = patient-derived low-grade serous ovarian cancer cells; settings: 72 h; library: FO5A; assay format: 2D, 384-well, CellTiter-Glo
In short: as §1

SMILES | drug sensitivity score (FMOC25_2) | drug sensitivity score (FMOC11) | drug sensitivity score (FMOC06) | drug sensitivity score (FMOC02_2) | drug sensitivity score (FMOC22) | drug sensitivity score (FMOC17) | drug sensitivity score (FMOC02_3) | drug sensitivity score (FMOC09) | drug sensitivity score (FMOC24) | drug sensitivity score (FMOC04) | drug sensitivity score (FMOC03) | drug sensitivity score (FMOC14) | drug sensitivity score (FMOC27) | drug sensitivity score (FMOC25_1) | drug sensitivity score (FMOC02_1) | drug sensitivity score (FMOC28)
Nc1ncn([C@H]2C[C@H](O)[C@@H](CO)O2)c(=O)n1 [Decitabine] | 1.5 | 5.3 | 0.4 | 1.4 | 0.1 | 0.9 | 0.6 | 0 | 7.4 | 0 | 0 | 0 | 7.5 | 0 | 0.3 | 0
C=CCN(/C=C1/C(=O)O[C@H](COC)[C@@]2(C)C1=C(O)C(=O)C1=C2[C@H](OC(C)=O)C[C@]2(C)C(=O)CC[C@@H]12)CC=C [Sonolisib] | 0 | 0 | 0 | 0.3 | 0 | 0 | 0.4 | 0 | 0.25 | 0 | 0 | 0 | 0 | 0 | 0 | 0.4
CN1CC[C@@H](NC(=O)Nc2ccc(C#N)cc2)C[C@@H]1c1nc2ccccc2[nH]1 [Glasdegib] | 5.2 | 0 | 0 | 0.4 | 0 | 0 | 0 | 0 | 2.75 | 0 | 0 | 0 | 0 | 0.1 | 0 | 3.7
C[C@]1(O)C[C@@H](c2nc(-c3ccc4ccc(-c5ccccc5)nc4c3)c3c(N)nccn32)C1 [Linsitinib] | 5.8 | 0.1 | 0.8 | 2.7 | 0 | 0.6 | 6.9 | 0.1 | 2.1 | 2.5 | 0.1 | 0 | 0 | 3.7 | 1.2 | 4.9
CC[C@@H]1C(=O)OC[C@@H]1Cc1cncn1C [Pilocarpine] | 0 | 0 | 0 | 0.3 | 0 | 0 | 0 | 0 | 2.65 | 0 | 0 | 0 | 0 | 0 | 0 | 0
CN(C)CCOc1ccc(/C(=C(/CCCl)c2ccccc2)c2ccccc2)cc1 [Toremifene] | 2.2 | 4.3 | 7.4 | 5.3 | 5.3 | 3.3 | 7.1 | 3.8 | 7 | 4 | 5.3 | 5.2 | 1.9 | 2.2 | 6 | 2.4
CC(C)(C#N)c1cc(Cn2cncn2)cc(C(C)(C)C#N)c1 [Anastrozole] | 0 | 0 | 0 | 0 | 0 | 0 | 0 | 0 | 0 | 0 | 0 | 0 | 0 | 0 | 0 | 0
CNc1nc(Nc2cn(C(C)(C)C#N)nc2C)ncc1C(F)(F)F [GNE-0877] | 0 | 0 | 0 | 0 | 0 | 0 | 0 | 0 | 0 | 0 | 0 | 0 | 0 | 0 | 0 | 0
CCCCCOC(=O)Nc1nc(=O)n([C@@H]2O[C@H](C)[C@@H](O)[C@H]2O)cc1F [Capecitabine] | 0.7 | 0.1 | 0 | 0 | 2.5 | 0.5 | 0 | 0 | 0.6 | 1.95 | 0.4 | 0.7 | 0 | 0 | 0 | 0
Cc1cc(C(C)Nc2ccccc2)c2nc(N3CCOCC3)cc(=O)n2c1 (configuration not stated) [TGX-221] | 2.6 | 0.3 | 1.1 | 3.3 | 0 | 2.4 | 0.8 | 0 | 0.75 | 0.35 | 1 | 0 | 2 | 1.7 | 2 | 0
CNC(=O)c1cc(Oc2ccc(NC(=O)Nc3ccc(Cl)c(C(F)(F)F)c3)cc2)ccn1 [Sorafenib] | 0 | 0 | 0 | 0 | 0 | 0.5 | 0 | 0 | 0 | 0 | 0 | 0 | 0 | 0 | 0 | 0
NC(=O)NO [Hydroxyurea] | 3.9 | 2.9 | 1.9 | 1.3 | 0.7 | 1.1 | 4.8 | 0.9 | 1.05 | 0.8 | 0.7 | 0 | 1.6 | 0.5 | 5.2 | 0.9
